Source: the supplement of paper PMC10307832

How the values were obtained:
Test in all cases: relative viability (nuclei count vs DMSO), 5 days (fraction); higher = more cells survive
MK-8033 + Luminespib = compound: Cn1cc(-c2cnc3ccc4ccc(CS(=O)(=O)NCc5ccccn5)cc4c(=O)c3c2)cn1 [MK-8033] + CCNC(=O)c1noc(-c2cc(C(C)C)c(O)cc2O)c1-c1ccc(CN2CCOCC2)cc1 [Luminespib] (partner 0.01 µM)
How it was run: (§1)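 Relative viability divides the nuclei count in treated wells by that in vehicle wells. Lung cancer cell lines were seeded in 1536-well plates, dosed by pin tool the next day, and fixed and stained after 5 days in one step with final 0.05% Triton X-100, 1% formaldehyde and 1 ug/ml Hoechst. Dosing was a single drug or a fixed anchor-drug dose plus five library-drug doses (not always all listed) in √10 steps, and values are medians of duplicate plates imaged at 4×.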

MK-8033 + Pemetrexed = compound: Cn1cc(-c2cnc3ccc4ccc(CS(=O)(=O)NCc5ccccn5)cc4c(=O)c3c2)cn1 [MK-8033] + Nc1nc2[nH]cc(CCc3ccc(C(=O)N[C@@H](CCC(=O)O)C(=O)O)cc3)c2c(=O)[nH]1 [Pemetrexed] (partner 0.2 µM)
How it was run: as §1

MK-8033 + Crizotinib = compound: Cn1cc(-c2cnc3ccc4ccc(CS(=O)(=O)NCc5ccccn5)cc4c(=O)c3c2)cn1 [MK-8033] + C[C@@H](Oc1cc(-c2cnn(C3CCNCC3)c2)cnc1N)c1c(Cl)ccc(F)c1Cl [Crizotinib] (partner 1 µM)
How it was run: as §1

Irinotecan + Crizotinib = compound: CCc1c2c(nc3ccc(OC(=O)N4CCC(N5CCCCC5)CC4)cc13)-c1cc3c(c(=O)n1C2)COC(=O)[C@]3(O)CC [Irinotecan] + C[C@@H](Oc1cc(-c2cnn(C3CCNCC3)c2)cnc1N)c1c(Cl)ccc(F)c1Cl [Crizotinib] (partner 1 µM)
How it was run: as §1

Row | Cell Line | relative viability (MK-8033 + Luminespib; first compound 0.02 µM) | relative viability (MK-8033 + Luminespib; first compound 0.06325 µM) | relative viability (MK-8033 + Luminespib; first compound 0.2 µM) | relative viability (MK-8033 + Luminespib; first compound 0.6325 µM) | relative viability (MK-8033 + Luminespib; first compound 2 µM) | relative viability (MK-8033 + Pemetrexed; first compound 0.02 µM) | relative viability (MK-8033 + Pemetrexed; first compound 0.06325 µM) | relative viability (MK-8033 + Pemetrexed; first compound 0.2 µM) | relative viability (MK-8033 + Pemetrexed; first compound 0.6325 µM) | relative viability (MK-8033 + Pemetrexed; first compound 2 µM) | relative viability (MK-8033 + Crizotinib; first compound 0.02 µM) | relative viability (MK-8033 + Crizotinib; first compound 0.06325 µM) | relative viability (MK-8033 + Crizotinib; first compound 0.2 µM) | relative viability (MK-8033 + Crizotinib; first compound 0.6325 µM) | relative viability (MK-8033 + Crizotinib; first compound 2 µM) | relative viability (Irinotecan + Crizotinib; first compound 2 µM) | relative viability (Irinotecan + Crizotinib; first compound 6.325 µM) | relative viability (Irinotecan + Crizotinib; first compound 20 µM) | relative viability (Irinotecan + Crizotinib; first compound 0.6325 µM)
1 | 201T | 0.986 | 1.07 | 0.957 | 1.06 | 1.03 | 0.306 | 0.348 | 0.301 | 0.291 | 0.312 | 1.07 | 0.991 | 1.03 | 0.874 | 1.03 | 0.888 | 0.52 | 0.388 | 
2 | A549 |  |  |  |  |  |  |  |  |  |  | 0.719 | 0.713 | 0.703 | 0.848 | 0.677 | 0.511 | 0.143 | 0.0565 | 0.621
3 | A-427 | 0.85 | 0.85 | 0.83 | 0.88 | 0.91 | 0.936 | 0.976 | 0.941 | 0.946 | 1.05 | 0.933 | 0.734 | 0.824 | 0.88 | 0.865 | 0.243 | 0.179 | 0.214 | 
4 | ABC-1 | 0.544 | 0.545 |  | 0.602 | 0.473 |  |  |  |  |  | 1.06 | 1.14 | 1.06 | 0.996 | 1.04 | 0.785 | 0.297 | 0.154 | 
5 | BEN | 0.382 | 0.419 | 0.331 | 0.295 | 0.455 | 0.924 | 0.694 | 0.752 | 0.765 | 0.758 | 0.895 | 0.763 | 0.838 | 0.89 | 0.773 | 0.52 | 0.252 | 0.391 | 0.928
6 | CAL-12T | 0.263 | 0.305 | 0.518 | 0.319 | 0.53 | 1.26 | 1.18 | 1.12 | 1.35 | 1.18 | 0.62 | 0.608 | 0.646 | 0.693 | 0.474 | 0.766 | 0.374 | 0.326 | 0.728
7 | COR-L23 | 0.696 | 0.595 | 0.722 | 0.661 | 0.606 | 0.2 | 0.197 | 0.219 | 0.212 | 0.197 | 0.58 | 0.721 | 0.489 | 0.73 | 0.506 | 0.289 | 0.204 | 0.1 | 0.293
8 | COR-L 105 | 0.552 | 0.79 | 0.774 | 0.616 | 0.677 | 1.22 | 0.744 | 1.14 | 1.12 | 1.05 | 0.797 | 0.696 | 0.917 | 0.861 | 0.802 | 0.866 | 0.524 | 0.376 | 0.922
9 | Calu-6 |  |  |  |  |  |  |  |  |  |  | 0.831 | 0.77 | 0.704 | 0.828 | 0.695 | 0.525 | 0.226 | 0.114 | 0.548
10 | ChaGo-K-1 | 0.679 | 0.696 | 0.562 | 0.636 | 0.516 | 0.251 | 0.223 | 0.253 | 0.267 | 0.262 | 1.11 | 1.02 | 1.11 | 1.1 | 0.726 | 0.849 | 0.47 | 0.402 | 
11 | EBC-1 |  |  |  |  |  |  |  |  |  |  | 0.158 | 0.16 | 0.193 | 0.193 | 0.188 | 0.165 | 0.203 | 0.151 | 0.191
12 | EKVX | 0.888 | 0.905 | 0.814 | 0.889 | 0.842 | 0.373 | 0.344 | 0.337 | 0.34 | 0.424 | 0.966 | 0.735 | 0.799 | 0.908 | 0.601 | 0.81 | 0.244 | 0.232 | 1.08
13 | EMC-BAC-2 | 1.2 | 1.07 | 1.12 | 1.16 | 1.12 | 0.453 | 0.406 | 0.46 | 0.419 | 0.439 | 0.76 | 0.77 | 0.718 | 0.783 | 0.701 | 0.291 | 0.216 | 0.19 | 0.332
14 | EPLC-272H | 0.214 | 0.339 | 0.282 | 0.218 | 0.475 | 0.359 | 0.357 | 0.345 | 0.376 | 0.313 | 1.09 |  | 0.88 | 0.843 | 0.866 | 0.163 | 0.2 | 0.264 | 0.504
15 | H3255 | 0.864 | 0.737 | 0.834 | 0.896 | 0.916 | 0.56 | 0.49 | 0.571 | 0.582 | 0.565 | 0.951 | 0.759 | 0.775 | 0.625 | 0.787 | 0.539 | 0.383 | 0.251 | 0.741
16 | HARA | 0.675 | 0.621 | 0.681 | 1.03 | 0.557 | 0.289 | 0.212 | 0.227 | 0.264 | 0.229 | 0.964 | 1.05 | 0.921 | 1.08 | 1.04 | 0.204 | 0.208 | 0.161 | 0.705
17 | HCC-15 | 0.281 | 0.397 | 0.263 | 0.253 | 0.307 | 0.222 | 0.221 | 0.236 | 0.237 | 0.194 | 0.778 | 0.796 | 0.762 | 0.816 | 0.808 | 0.319 | 0.158 | 0.18 | 0.479
18 | HCC-44 | 1.06 | 1.02 | 1.01 | 1.3 | 1.05 | 0.672 | 0.695 | 0.681 | 0.691 | 0.603 | 0.808 | 0.732 | 0.755 | 0.746 | 0.756 | 0.491 | 0.27 | 0.273 | 0.578
19 | HCC-78 |  |  |  |  |  | 0.936 | 0.923 | 0.928 | 0.587 | 0.851 | 0.336 | 0.316 | 0.344 |  | 0.32 | 0.312 | 0.222 | 0.181 | 0.353
